The source made the active and inactive calls. The rule behind the calls is not given here.
Assays:
[1] = Downregulation of vimentin expression in human SK-N-SH cells at 3 to 9 uM measured after 48 hrs by Western blot analysis relative to control; assay type: functional; conditions: dose 3-9 µM
[2] = system: SK-N-SH; assay: Inhibition of cell migration in human SK-N-SH cells at 2 uM measured after 48 hrs by crystal violet staining based microscopic analysis relative to control; assay type: functional
[3] = target: Quadruplex DNA; assay: Binding affinity to BCL-2 G4 DNA (unknown origin) assessed as dissociation constant by SPR analysis; assay type: nucleic-acid assay
[4] = Toxicity in female ICR mouse assessed as appearance of homogenous renal corpuscles in kidney at 10 to 20 mg/kg, ip H and E staining based analysis; assay type: organism-based; conditions: in vivo, dose 10-20 mg/kg
[5] = Toxicity in female ICR mouse assessed as change in organ coefficient of spleen at 10 mg/kg, ip […] (reference value: 0.006+/-0.002); assay type: organism-based; conditions: in vivo
[6] = Toxicity in female ICR mouse assessed as change in organ coefficient of kidney at 20 mg/kg, ip […] (reference value: 0.007); assay type: organism-based; conditions: in vivo
[7] = system: SK-N-SH; assay: Induction of mitochondrial dysfunction in human SK-N-SH cells assessed as appearance of fragmented mitochondria at 6 uM measured after 48 hrs by fluorescence microscopic analysis; assay type: functional, cell-based
[8] = system: SK-N-SH; assay: Induction of apoptosis in human SK-N-SH cells assessed as increase in apoptotic cells at 3 to 9 uM measured after 48 hrs by FITC and PI staining based flow cytometry analysis relative to control; assay type: functional; conditions: dose 3-9 µM
[9] = Toxicity in female ICR mouse assessed as change in organ coefficient of lung at 20 mg/kg, ip […] (reference value: 0.007+/-0.001); assay type: organism-based; conditions: in vivo
[10] = system: SK-N-SH; assay: Inhibition of colony formation in human SK-N-SH cells assessed as reduction in colony size at 0.5 to 2 uM preincubated for 24 hrs followed by incubation under compound free medium for 8 days by crystal violet staining based analysis; assay type: functional, cell-based; conditions: dose 0.5-2 µM
[11] = Toxicity in female ICR mouse assessed as effect on body weight loss at 10 to 20 mg/kg, ip; assay type: organism-based; conditions: in vivo, dose 10-20 mg/kg
[12] = system: SK-N-SH; assay: Upregulation of AIF level in human SK-N-SH cells at 6 uM measured after 48 hrs by immunofluorescence staining based microscopic analysis; assay type: functional, cell-based
[13] = Toxicity in female ICR mouse assessed as hyperplasia in liver at 10 to 20 mg/kg, ip by H and E staining based analysis; assay type: organism-based; conditions: in vivo, dose 10-20 mg/kg
[14] = Toxicity in female ICR mouse assessed as change in organ coefficient of kidney at 10 mg/kg, ip […] (reference value: 0.007); assay type: organism-based; conditions: in vivo
[15] = system: SK-N-SH; assay: Induction of mitochondrial dysfunction in human SK-N-SH cells assessed as appearance of blurred mitochondria at 6 uM measured after 48 hrs by fluorescence microscopic analysis; assay type: functional, cell-based
[16] = Toxicity in female ICR mouse assessed as change in organ coefficient of liver at 10 mg/kg, ip […] (reference value: 0.058+/-0.010); assay type: organism-based; conditions: in vivo
[17] = Toxicity in female ICR mouse assessed as histomorphological changes in liver at 10 to 20 mg/kg, ip H and E staining based analysis; assay type: organism-based; conditions: in vivo, dose 10-20 mg/kg
[18] = Antiproliferative activity against human Embryonic lung cell assessed as inhibition of cell growth incubated for 60 hrs by CCK-8 method; assay type: toxicity, cell-based
[19] = system: N2a; assay: Antitumor activity against mouse N2a cells implanted in female ICR mouse model assessed as change in body weight at 10 mg/kg, ip measured upto 8 days (reference value: 25.54 +/-2.19 g); assay type: functional; conditions: time <= 8 day
[20] = Toxicity in female ICR mouse assessed as change in organ coefficient of spleen at 20 mg/kg, ip […] (reference value: 0.006+/-0.002); assay type: organism-based; conditions: in vivo
[21] = Toxicity in female ICR mouse assessed as change in organ coefficient of lung at 10 mg/kg, ip […] (reference value: 0.007+/-0.001); assay type: organism-based; conditions: in vivo
[22] = system: SK-N-SH; assay: Inhibition of cell invasion in human SK-N-SH cells at 2 uM measured after 48 hrs by crystal violet staining based microscopic analysis relative to control; assay type: functional
[23] = system: N2a; assay: Antitumor activity against mouse N2a cells implanted in female ICR mouse model assessed as suppression of tumor cell proliferation administered as ip dose measured upto 8 days by Ki67 staining based analysis; assay type: functional, organism-based; conditions: dose 10-20 mg/kg, time <= 8.0 day
[24] = Toxicity in female ICR mouse assessed as histomorphological changes in heart at 10 to 20 mg/kg, ip H and E staining based analysis; assay type: organism-based; conditions: in vivo, dose 10-20 mg/kg
[25] = Toxicity in female ICR mouse assessed as abnormal movement at 10 to 20 mg/kg, ip; assay type: organism-based; conditions: in vivo, dose 10-20 mg/kg
[26] = system: SK-N-SH; assay: Upregulation of Bax expression in human SK-N-SH cells at 3 to 9 uM measured after 48 hrs by Western blot analysis; assay type: functional, cell-based; conditions: dose 3-9 µM
[27] = system: SK-N-SH; assay: Inhibition of cell migration in human SK-N-SH cells at 0.5 to 2 uM measured after 48 hrs by crystal violet staining based microscopic analysis; assay type: functional; conditions: dose 0.5-2 µM
[28] = Downregulation of N-cadherin expression in human SK-N-SH cells at 6 uM measured after 48 hrs by Western blot analysis relative to control; assay type: functional
[29] = system: N2a; assay: Antitumor activity against mouse N2a cells implanted in female ICR mouse model assessed as change in body weight at 20 mg/kg, ip measured upto 8 days (reference value: 25.54 +/-2.19 g); assay type: functional; conditions: time <= 8 day
[30] = Antiproliferative activity against human Neuroblastoma cell assessed as inhibition of cell growth incubated for 60 hrs by CCK-8 method; assay type: functional, cell-based
[31] = system: SK-N-SH; assay: Antiproliferative activity against human SK-N-SH cells assessed as reduction in cell proliferation at 2 uM incubated for 60 hrs by CCK-8 method relative to control; assay type: functional; set-up: scale not given: the % may be the effect or the level left

Kd [3]: 78.5 nM
Structure (SMILES): N#C[Se]CCCOc1ccc2cc(C(=O)N3N=C(c4ccc(F)cc4)CC3c3ccc(F)cc3)c(=O)oc2c1 (stereo unspecified)
Activity [1]: 33.1% | inhibition at 2 µM [2]: 83.2% | Activity [4]: Non-toxic | Activity [5]: 0.006 | Activity [6]: 0.008 | Activity [7]: Active | Activity [8]: 47.4% | Activity [9]: 0.007 | inhibition [10]: Active | Activity [11]: Non-toxic | Activity [12]: Active | Activity [13]: Non-toxic | Activity [14]: 0.007 | Activity [15]: Active | Activity [16]: 0.059 | Activity [17]: Non-toxic | Activity [18]: Non-toxic | Activity [19]: 27.2 g | Activity [20]: 0.005 | Activity [21]: 0.007 | inhibition at 2 µM [22]: 78.4% | Activity [23]: Dose-dependent-effect | Activity [24]: Non-toxic | Activity [25]: Non-toxic | Activity [26]: Active | inhibition [27]: Active | Activity [28]: 63.1% | Activity [29]: 26.34 g | IC50 [30]: 2500 nM | Activity [31]: 81.4%

— ChEMBL document CHEMBL6103579, “Antiproliferative activity of selenium-enriched coumarin derivatives on the SK-N-SH neuroblastoma cell line: Mechanistic insights” (Eur J Med Chem, 2025)
